Values quoted from earlier work, collected in patent publication US9145400B2, “Process for the preparation of form III of vilazodone hydrochloride” (Sandoz AG, priority 2013, dated 2015).
Where two headings read alike, the source gives them in different places.

Legend:
[1] = at room temperature
[2] = DVS, humidity of about 90%; takes up water only in minimal amounts; per WO 02/102794

thermodynamic stability among polymorphs ([1]; per WO 02/102794 page 20, lines 23-26 and FIG. 27, listed as Vilazodone hydrochloride crystalline form III): thermodynamically most stable form
thermodynamic stability among polymorphs ([1]; per WO 02/102794 page 20, lines 23-26 and FIG. 27, hydrochloride): most thermodynamically stable polymorph
hygroscopicity (water uptake) [2]: non-hygroscopic
Compound: Cl.N#Cc1ccc2[nH]cc(CCCCN3CCN(c4ccc5oc(C(N)=O)cc5c4)CC3)c2c1 [form III of Vilazodone hydrochloride, 5-(4-[4-(5-cyano-1H-indol-3-yl)butyl]piperazin-1-yl)benzofuran-2-carboxamide hydrochloride]
